# Data reported in US12503436B2, “Compounds and compositions for treating conditions associated with STING activity” (NOVARTIS PHARMA AG, priority 2021, dated 2025).
# Target: STING (Homo sapiens, UniProt Q86WV6, G230A/H232R/R293Q/R71H)
# Experiment: STING reporter assay in THP1-Dual KO-IFNAR2 cells (2′3′cGAMP stimulation, luciferase reporter)
# Assay type: cell-based
# Settings: 15 μM 2′3′cGAMP stimulation, 24 h, read-out: Pharmaron, THP1_IFNAR2 STING 24 h Luci Normalized: GeoMean EC50
# Protocol: STING pathway activation by the compounds described herein was measured using THP1-Dual™ cells (KO-IFNAR2).
# THP1-Dual™ KO-IFNAR2 Cells (obtained from InvivoGen) were maintained in RPMI, 10% FCS, 5 ml P/S, 2 mM L-glut, 10 mM Hepes, and 1 mM sodium pyruvate. Compounds were spotted in empty 384 well tissue culture plates (Greiner 781182) by Echo for a final concentration of 0.0017-100 μM. Cells were plated into the TC plates at 40 μL per well, 2×10E6 cells/mL. For activation with STING ligand, 2′3′cGAMP (MW 718.38, obtained from Invivogen), was prepared in Optimem media.
# The following solutions were prepared for each 1×384 plate: • Solution A: 2 mL Optimem with one of the following stimuli: • 60 μL of 10 mM 2′3′cGAMP→150 μM stock • Solution B: 2 mL Optimem with 60 μL Lipofectamine 2000→Incubate 5 min at RT
# 2 mL of solution A and 2 ml Solution B was mixed and incubated for 20 min at room temperature (RT). 20 μL of transfection solution (A+B) was added on top of the plated cells, with a final 2′3′cGAMP concentration of 15 μM. The plates were then centrifuged immediately at 340 g for 1 minute, after which they were incubated at 37° C., 5% CO2, >98% humidity for 24 h. Luciferase reporter activity was then measured. EC50 values were calculated by using standard methods known in the art.
# Luciferase reporter assay: 10 μL of supernatant from the assay was transferred to white 384-plate with flat bottom and squared wells. One pouch of QUANTI-Luc™ Plus was dissolved in 25 mL of water. 100 μL of QLC Stabilizer per 25 mL of QUANTI-Luc™ Plus solution was added. 50 μL of QUANTI-Luc™ Plus/QLC solution per well was then added. Luminescence was measured on a Platereader (e.g., Spectramax I3X (Molecular Devices GF3637001)).
# Luciferase reporter activity was then measured. EC50 values were calculated by using standard methods known in the art.
# STING, sequence (Q86WV6 whole entry R71H/G230A/H232R/R293Q): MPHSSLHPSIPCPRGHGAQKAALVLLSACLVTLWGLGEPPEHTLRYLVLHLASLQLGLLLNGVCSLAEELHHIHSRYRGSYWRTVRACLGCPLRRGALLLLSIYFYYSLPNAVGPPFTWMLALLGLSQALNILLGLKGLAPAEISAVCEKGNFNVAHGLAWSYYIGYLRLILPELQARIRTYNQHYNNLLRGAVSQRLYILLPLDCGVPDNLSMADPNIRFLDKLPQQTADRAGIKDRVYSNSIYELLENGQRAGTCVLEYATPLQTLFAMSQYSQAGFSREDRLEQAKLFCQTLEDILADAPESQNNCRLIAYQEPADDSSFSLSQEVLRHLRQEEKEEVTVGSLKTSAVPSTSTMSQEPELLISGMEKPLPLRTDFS
row,Molecule,EC50
1,"CC(=O)Nc1c[nH]c2ccc(CCOc3cccc(C(C)N(C)C)c3)cc12 (stereo not drawn) [Compound 536, N-(5-(2-(3-(1-(dimethylamino)ethyl)phenoxy)ethyl)-1H-indol-3-yl)acetamide]",5000 to 100000 nM
2,"CC(=O)Nc1c[nH]c2ncc(COCc3ccc(C(F)(F)F)cc3)cc12 [Compound 271, N-(5-(((4-(trifluoromethyl)benzyl)oxy)methyl)-1H-pyrrolo[2,3-b]pyridin-3-yl)acetamide]",1000 to 5000 nM
3,"CC(=O)Nc1c[nH]c2ccc(CCOc3cnc(Cl)c(C)c3)cc12 [Compound 557, N-(5-(2-((6-chloro-5-methylpyridin-3-yl)oxy)ethyl)-1H-indol-3-yl)acetamide]",1000 to 5000 nM
4,"CC(CCc1ccc(C(F)(F)F)cc1)c1ccc2[nH]cc(NC(=O)C3CCC3)c2c1 (stereo not drawn) [Compound 131, N-(5-(4-(4-(trifluoromethyl)phenyl)butan-2-yl)-1H-indol-3-yl)cyclobutanecarboxamide]",1000 to 5000 nM
5,"O=C(Nc1c[nH]c2ccc(O[C@H]3C[C@@H](c4ccc(C(F)(F)F)cc4)C3)cc12)C1CC(F)C1 (stereo partly drawn) [Compound 576, 3-fluoro-N-(5-(cis-3-(4-(trifluoromethyl)phenyl)cyclobutoxy)-1H-indol-3-yl)cyclobutane-1-carboxamide]",40 to 200 nM
6,"COCC1(C(=O)Nc2c[nH]c3ccc(OCc4ccc(C(F)(F)F)cc4)cc23)CC1 [Compound 319, 1-(methoxymethyl)-N-(5-((4-(trifluoromethyl)benzyl)oxy)-1H-indol-3-yl)cyclopropane-1-carboxamide]",200 to 1000 nM
7,"COCC1(C(=O)Nc2c[nH]c3ccc(CCOc4ccc(C(F)(F)F)cc4)cc23)CC1 [Compound 176, 1-(methoxymethyl)-N-(5-{2-[4-(trifluoromethyl)phenoxy]ethyl}-1H-indol-3-yl)cyclopropane-1-carboxamide]",200 to 1000 nM
8,"O=C(Nc1c[nH]c2ccc(O[C@H]3C[C@H](c4ccc(C(F)(F)F)nc4)C3)cc12)[C@H]1C[C@H](CO)C1 [Compound 553, trans-3-(hydroxymethyl)-N-(5-(trans-3-(6-(trifluoromethyl)pyridin-3-yl)cyclobutoxy)-1H-indol-3-yl)cyclobutane-1-carboxamide]",200 to 1000 nM
9,"CC(=O)Nc1c[nH]c2ccc(CCNc3ccc(C(F)(F)F)nc3)cc12 [Compound 126, N-(5-(2-((6-(trifluoromethyl)pyridin-3-yl)amino)ethyl)-1H-indol-3-yl)acetamide]",1000 to 5000 nM
10,"C[C@]1(C(=O)Nc2c[nH]c3ccc(OCc4ccc(C(F)(F)F)cc4)cc23)CC[C@@H](O)CC1 [Compound 419, trans-4-hydroxy-1-methyl-N-(5-((4-(trifluoromethyl)benzyl)oxy)-1H-indol-3-yl)cyclohexane-1-carboxamide]",200 to 1000 nM
11,"CC(=O)Nc1c[nH]c2ccc(CCOc3ccc(C4CCN(CC(F)(F)F)CC4)cc3)cc12 [Compound 170, N-(5-(2-(4-(1-(2,2,2-trifluoroethyl)piperidin-4-yl)phenoxy)ethyl)-1H-indol-3-yl)acetamide]",200 to 1000 nM
12,"CC(=O)Nc1c[nH]c2ccc(OCCC3CCN(CC(F)(F)F)CC3)cc12 [Compound 122, N-(5-(2-(1-(2,2,2-trifluoroethyl)piperidin-4-yl)ethoxy)-1H-indol-3-yl)acetamide]",200 to 1000 nM

# The next lines start with the values.
row,EC50,Molecule
1,200 to 1000 nM,"3-(hydroxymethyl)-N-(5-(2-((3aR,5r,6aS)-2-(2,2,2-trifluoroethyl)octahydrocyclopenta[c]pyrrol-5-yl)ethoxy)-1H-indol-3-yl)cyclobutane-1-carboxamide [Compound 343]"
2,40 to 200 nM,"CO[C@H]1C[C@H](C(=O)Nc2c[nH]c3ccc(CCOc4ccc(C(F)(F)F)cc4)cc23)C1 [Compound 220, trans-3-methoxy-N-(5-(2-(4-(trifluoromethyl)phenoxy)ethyl)-1H-indol-3-yl)cyclobutane-1-carboxamide]"
3,40 to 200 nM,"O=C(Nc1c[nH]c2ccc(COCc3ccc(C(F)(F)F)cc3)cc12)C1CCC1 [Compound 109, N-(5-(((4-(trifluoromethyl)benzyl)oxy)methyl)-1H-indol-3-yl)cyclobutanecarboxamide]"
4,200 to 1000 nM,"C[C@]1(C(=O)Nc2c[nH]c3ccc(OCc4ccc(C(F)(F)F)cc4)cc23)C[C@@H](CO)C1 [Compound 417, trans-3-(hydroxymethyl)-1-methyl-N-(5-((4-(trifluoromethyl)benzyl)oxy)-1H-indol-3-yl)cyclobutane-1-carboxamide]"
5,200 to 1000 nM,"CC(=O)Nc1c[nH]c2ccc(CCOc3ccc(Cl)c(Cl)c3)cc12 [Compound 214, N-(5-(2-(3,4-dichlorophenoxy)ethyl)-1H-indol-3-yl)acetamide]"
6,40 to 200 nM,"[2H][13C]([2H])([2H])C(=O)Nc1c[nH]c2ccc(CCOc3ccc(C(F)(F)F)cc3)cc12 [Compound 545, N-(5-(2-(4-(trifluoromethyl)phenoxy)ethyl)-1H-indol-3-yl)acetamide-2-13C-2,2,2-d3]"
7,200 to 1000 nM,"CC(=O)Nc1c[nH]c2ccc(CCOc3ccc(Cl)cc3)cc12 [Compound 229, N-(5-(2-(4-chlorophenoxy)ethyl)-1H-indol-3-yl)acetamide]"
8,200 to 1000 nM,"CC1(C(=O)Nc2c[nH]c3ccc(OCc4ccc(C(F)(F)F)cc4)cc23)CCOC1 (stereo not drawn) [Compound 154, 3-methyl-N-(5-((4-(trifluoromethyl)benzyl)oxy)-1H-indol-3-yl)tetrahydrofuran-3-carboxamide]"
9,200 to 1000 nM,"O=C(CC(O)C(F)(F)F)Nc1c[nH]c2ccc(OCC[C@@H]3C[C@@H]4CN(CC(F)(F)F)C[C@@H]4C3)cc12 (stereo partly drawn) [Compound 433, 4,4,4-trifluoro-3-hydroxy-N-(5-(2-((3aR,5r,6aS)-2-(2,2,2-trifluoroethyl)octahydrocyclopenta[c]pyrrol-5-yl)ethoxy)-1H-indol-3-yl)butanamide]"
10,200 to 1000 nM,"CC1(C(=O)Nc2c[nH]c3ccc(CCCc4ccc(C(F)(F)F)cn4)cc23)CC1 [Compound 464, 1-methyl-N-(5-(3-(5-(trifluoromethyl)pyridin-2-yl)propyl)-1H-indol-3-yl)cyclopropane-1-carboxamide]"
11,200 to 1000 nM,"CC1(C(=O)Nc2c[nH]c3ccc(OCc4ccc(C(F)(F)F)cc4)cc23)CC1 [Compound 301, 1-methyl-N-(5-((4-(trifluoromethyl)benzyl)oxy)-1H-indol-3-yl)cyclopropane-1-carboxamide]"
12,200 to 1000 nM,"CC(=O)Nc1c[nH]c2ccc(OCCC3CCN(c4ccc(C(F)(F)F)cc4)CC3)cc12 [Compound 104, N-(5-(2-(1-(4-(trifluoromethyl)phenyl)piperidin-4-yl)ethoxy)-1H-indol-3-yl)acetamide]"
13,40 to 200 nM,"CC1(C(=O)Nc2c[nH]c3ccc(OCc4ccc(C(F)(F)F)cc4)cc23)COC1 [Compound 166, 3-methyl-N-(5-((4-(trifluoromethyl)benzyl)oxy)-1H-indol-3-yl)oxetane-3-carboxamide]"
14,40 to 200 nM,"CO[C@H]1C[C@@H](C(=O)Nc2c[nH]c3ccc(OCCc4ccc(C(F)(F)F)cc4)cc23)C1 [Compound 222, cis-3-methoxy-N-(5-(4-(trifluoromethyl)phenethoxy)-1H-indol-3-yl)cyclobutane-1-carboxamide]"
15,40 to 200 nM,"CC1(C(=O)Nc2c[nH]c3ccc(OCCc4ccc(C(F)(F)F)cc4)cc23)CCOCC1 [Compound 237, 4-methyl-N-(5-(4-(trifluoromethyl)phenethoxy)-1H-indol-3-yl)tetrahydro-2H-pyran-4-carboxamide]"
